Test results published in ChEMBL document CHEMBL1201862, “PubChem BioAssay data set” (2004).
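Interpolation was linear, between the two tested concentrations surrounding the appropriate level; five concentrations were tested over 48 hours in 96-well plates. The concentration for 50% growth inhibition is given as GI50.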 Active and inactive are the calls of the source. No stated cut-off is given here; in the data, active = GI50 up to about 1.1 µM and inactive = higher.

Legend:
Assay in all cases: NCI anticancer screen, dose series, 48 h
[1] = test system: RPMI-8226
[2] = test system: OVCAR-3
[3] = test system: OVCAR-5
[4] = test system: SNB-75
[5] = test system: SNB-19
[6] = test system: OVCAR-4
[7] = test system: IGROV-1
[8] = test system: MCF7
[9] = test system: SN12C
[10] = test system: NCI-H460
[11] = test system: HOP-92
[12] = test system: SK-OV-3
[13] = test system: HT-29
[14] = test system: U-251
[15] = test system: MOLT-4
[16] = test system: K562
[17] = test system: COLO 205
[18] = test system: SK-MEL-2
[19] = test system: Malme-3M
[20] = test system: RXF 393

Measured: GI50

C[C@@H]1CC[C@H]2C(C)(C)[C@H]3C[C@@]12CC[C@@]3(C)O [CEDROL]
inactive: [1] 24.6 µM | [2] > 100 µM | [3] > 100 µM | [4] > 100 µM | [5] > 100 µM | [6] > 100 µM | [7] > 100 µM | [8] > 100 µM | [9] 26.7 µM | [10] 18.2 µM | [11] 72.6 µM | [12] > 100 µM | [13] 36 µM | [14] > 10 µM | [15] 35.5 µM | [16] 92 µM | [17] > 100 µM | [18] > 100 µM

O=Cc1cc2c(cc1-c1c(C=O)ccc3c1OCO3)OCO2
inactive: [1] > 10 µM | [2] > 10 µM | [4] > 10 µM | [5] > 10 µM | [6] > 10 µM | [7] > 10 µM | [8] > 10 µM | [9] > 10 µM | [11] > 10 µM | [12] > 10 µM | [13] > 10 µM | [19] > 10 µM | [14] > 10 µM | [15] > 10 µM | [16] > 10 µM | [17] > 10 µM

CS(=O)(=O)c1ccc(COP(N)(=O)N(CCCl)CCCl)cc1 (stereo not given)
inactive: [1] > 100 µM | [2] > 100 µM | [3] > 100 µM | [4] > 100 µM | [5] > 100 µM | [6] > 100 µM | [7] > 100 µM | [9] > 100 µM | [10] > 100 µM | [11] > 100 µM | [12] > 100 µM | [13] > 100 µM | [20] > 100 µM | [19] > 100 µM | [14] > 100 µM | [15] > 100 µM | [16] > 100 µM | [17] > 100 µM | [18] > 100 µM

COC(=O)/C=C/c1cc(OC)c2oc(-c3ccc(OC)c(OC)c3)c(C(=O)OC)c2c1
inactive: [1] > 100 µM | [2] > 100 µM | [3] > 100 µM | [5] > 100 µM | [6] > 100 µM | [7] > 100 µM | [8] > 100 µM | [9] > 100 µM | [10] > 100 µM | [11] > 100 µM | [12] > 100 µM | [13] > 100 µM | [19] > 100 µM | [14] > 100 µM | [15] > 100 µM | [16] > 100 µM | [17] > 100 µM | [18] > 100 µM

Cn1c(=O)c2nc(/N=N/Nc3nncs3)[nH]c2n(C)c1=O
inactive: [2] > 100 µM | [3] > 100 µM | [5] > 100 µM | [6] > 100 µM | [7] > 100 µM | [8] > 100 µM | [9] > 100 µM | [10] > 100 µM | [11] > 100 µM | [12] > 100 µM | [13] > 100 µM | [20] > 100 µM | [14] > 100 µM | [15] > 100 µM | [16] > 100 µM | [17] > 100 µM | [18] > 100 µM

O=C1Cc2c([nH]c3ccc(Br)cc23)-c2ccccc2N1 [KENPAULLONE]
inactive: [1] > 20.5 µM | [2] 3.95 µM | [3] > 100 µM | [4] > 50.8 µM | [5] > 78.5 µM | [6] > 100 µM | [7] 9.75 µM | [9] > 100 µM | [10] > 100 µM | [11] > 100 µM | [12] > 100 µM | [13] 5.19 µM | [20] 5.11 µM | [19] > 100 µM | [14] > 51.5 µM | [15] 13.5 µM | [16] > 54.8 µM | [17] > 100 µM | [18] > 100 µM

COC(=O)c1ccccc1/N=C/c1ccc(N(CCC#N)S(=O)(=O)c2ccccc2)cc1
inactive: [1] > 100 µM | [2] > 100 µM | [3] > 100 µM | [4] > 100 µM | [5] > 100 µM | [6] > 100 µM | [7] > 100 µM | [9] > 100 µM | [10] > 100 µM | [11] > 100 µM | [12] > 100 µM | [13] > 100 µM | [20] > 100 µM | [19] > 100 µM | [14] > 100 µM | [15] > 100 µM | [16] > 100 µM | [17] > 100 µM | [18] > 100 µM

COc1ccc(/C=N/N=C(\N)NO)cc1OC
inactive: [1] > 100 µM | [2] > 100 µM | [3] 63 µM | [4] 42.9 µM | [5] > 100 µM | [6] 99.1 µM | [7] 33.9 µM | [9] 45.8 µM | [10] 33.7 µM | [11] 84.7 µM | [12] 45.1 µM | [13] 28.7 µM | [20] 30.5 µM | [19] 75.2 µM | [14] 38.1 µM | [15] > 100 µM | [16] 11.5 µM | [17] 37.5 µM | [18] 58.5 µM
